Data as given in patent US11236052B2, “Aminobenzimidazole derivatives, treatments, and methods of inhibiting histone deacetylase” (TRANSLATIONAL DRUG DEVELOPMENT, LLC, priority 2017, dated 2022).

Assays:
Toledo = experiment: CellTiter-Glo cell viability assay, Toledo; assay type: cell-based; conditions: Lymphoma; for IC50: Homo sapiens, 72 hours
Procedure: (§1) Cell Viability Assay—Cell viability was measured by the CellTiter-Glo® cell viability assay Promega (Madison, Wis.). The CellTiter-Glo® Luminescent Cell Viability Assay is a homogeneous method to determine the number of viable cells in culture based on quantitation of the ATP present, which signals the presence of metabolically active cells. Following treatment, CellTiter-Glo® is added to treatment wells and incubated at 37° C. luminescence values were measured at using a Molecular Devices Spectramax microplate reader.
(§2) Single Agent Studies—Cells were grown to 70% confluency, trypsinized, counted, and seeded in 96 well flat-bottom plates at a final concentration of 2.5×10^3-5×10^3 cells/well (Day 0). Cells were allowed to incubate in growth media for 24 hours. Treatment with the test agents began on Day 1 and continued for 72 hours. At the 72-hour time point, treatment-containing media was removed. Viable cell numbers are quantified by the CellTiter-Glo® cell viability assay as described above. Experiments were run with triplicate concentrations to determine growth inhibitory activity. Results from these studies were used to calculate an IC50 value (concentration of drug that inhibits cell growth by 50 percent of control) for each compound.
(§3) Data Collection—For single agent and combination studies, data from each experiment was collected and expressed as % Cell Growth using the following calculation: % Cell Growth=(ftest/fvehicle)×100
(§4) Where ftest is the luminescence of the tested sample, and fvehicle is the luminescence of the vehicle in which the drug is dissolved. Dose response graphs and IC50 values were generated using Prism 6 software (GraphPad).

Raji = experiment: CellTiter-Glo cell viability assay, Raji; assay type: cell-based; conditions: Lymphoma; for IC50: Homo sapiens, 72 hours
Procedure: as §1, §2, §3, §4

MFE280 = experiment: CellTiter-Glo cell viability assay, MFE280; assay type: cell-based; conditions: Uterine; for IC50: Homo sapiens, MFE-280, MFE280, 72 hours
Procedure: as §1, §2, §3, §4

% PPB, human = assay type: in vitro ADME; conditions: plasma; human (hu)
HDAC10 = HDAC10 (Homo sapiens (Human), UniProt Q969S8); experiment: In vitro HDAC enzyme inhibition, mobility shift; assay type: biochemical; conditions: purified enzyme
Procedure: (§5) Purified histone deacetylase enzymes 1, 3, 6, 10 were incubated with fluorescently labeled substrate and test compounds in a standardized reaction mixture in 384 well plates. Upon termination of the reaction, samples were introduced onto microfluidic chips. Samples migrate through channels in the chips and product and substrate are separated based on the difference in their charge and mass (electrophoretic mobility shift). Enzyme activity is measured by direct comparison of the fluorescence in the product and substrate peaks and the results presented in Table 4.

HDAC3 = HDAC3 (Homo sapiens (Human), UniProt O15379); experiment: In vitro HDAC enzyme inhibition, mobility shift; assay type: biochemical; conditions: purified enzyme
Procedure: as §5

HDAC1 = HDAC1 (Homo sapiens (Human), UniProt Q13547); experiment: In vitro HDAC enzyme inhibition, mobility shift; assay type: biochemical; conditions: purified enzyme
Procedure: as §5

HDAC6 = HDAC6 (Homo sapiens (Human), UniProt Q9UBN7); experiment: In vitro HDAC enzyme inhibition, mobility shift; assay type: biochemical; conditions: purified enzyme
Procedure: as §5

S9 in vitro half-life = assay type: in vitro ADME; conditions: S9 fraction
OCI-LY3 = experiment: CellTiter-Glo cell viability assay, OCI-LY3; assay type: cell-based; conditions: Lymphoma; for IC50: Homo sapiens, OCI-LY3, 72 hours
Procedure: as §1, §2, §3, §4

ES2 = experiment: CellTiter-Glo cell viability assay, ES2; assay type: cell-based; conditions: Ovarian; for IC50: Homo sapiens, ES-2, ES2, 72 hours
Procedure: as §1, §2, §3, §4

% PPB, mouse = assay type: in vitro ADME; conditions: plasma; mouse (m)
KMS-34 = experiment: CellTiter-Glo cell viability assay, KMS-34; assay type: cell-based; conditions: Myeloma; for IC50: KMS-34, 72 hours
Procedure: as §1, §2, §3, §4

BC-1 = experiment: CellTiter-Glo cell viability assay, BC-1; assay type: cell-based; conditions: Lymphoma; for IC50: Homo sapiens, BC1, BC-1, 72 hours
Procedure: as §1, §2, §3, §4

A549 = experiment: CellTiter-Glo cell viability assay, A549; assay type: cell-based; conditions: NSCLC; for IC50: Homo sapiens, A549, 72 hours
Procedure: as §1, §2, §3, §4

A2780 = experiment: CellTiter-Glo cell viability assay, A2780; assay type: cell-based; conditions: Ovarian; for IC50: Homo sapiens, A2780, 72 hours
Procedure: as §1, §2, §3, §4

SKUT-1B = experiment: CellTiter-Glo cell viability assay, SKUT-1B; assay type: cell-based; conditions: Uterine; for IC50: Homo sapiens, Skut1B, 72 hours
Procedure: as §1, §2, §3, §4

U266 = experiment: CellTiter-Glo cell viability assay, U266; assay type: cell-based; conditions: Myeloma; for IC50: Homo sapiens, U-266, U266, 72 hours
Procedure: as §1, §2, §3, §4

Permeability (PAMPA) = assay type: in vitro ADME; conditions: read-out: Permeabiltiy (PAMPA)

Chain of HDAC1 (Q13547 whole entry): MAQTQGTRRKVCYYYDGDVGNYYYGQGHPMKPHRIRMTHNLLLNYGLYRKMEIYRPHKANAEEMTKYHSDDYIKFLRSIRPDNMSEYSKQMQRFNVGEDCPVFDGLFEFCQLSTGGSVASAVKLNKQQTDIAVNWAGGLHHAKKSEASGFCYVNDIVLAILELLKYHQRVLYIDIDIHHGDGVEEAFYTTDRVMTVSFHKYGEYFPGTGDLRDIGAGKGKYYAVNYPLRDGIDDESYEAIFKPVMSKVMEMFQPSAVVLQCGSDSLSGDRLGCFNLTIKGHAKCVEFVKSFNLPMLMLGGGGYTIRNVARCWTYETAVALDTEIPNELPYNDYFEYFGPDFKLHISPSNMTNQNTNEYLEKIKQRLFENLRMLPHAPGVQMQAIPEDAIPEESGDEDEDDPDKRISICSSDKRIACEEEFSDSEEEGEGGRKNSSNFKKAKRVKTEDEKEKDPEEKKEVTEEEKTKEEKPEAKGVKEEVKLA
Chain of HDAC3 (O15379 whole entry): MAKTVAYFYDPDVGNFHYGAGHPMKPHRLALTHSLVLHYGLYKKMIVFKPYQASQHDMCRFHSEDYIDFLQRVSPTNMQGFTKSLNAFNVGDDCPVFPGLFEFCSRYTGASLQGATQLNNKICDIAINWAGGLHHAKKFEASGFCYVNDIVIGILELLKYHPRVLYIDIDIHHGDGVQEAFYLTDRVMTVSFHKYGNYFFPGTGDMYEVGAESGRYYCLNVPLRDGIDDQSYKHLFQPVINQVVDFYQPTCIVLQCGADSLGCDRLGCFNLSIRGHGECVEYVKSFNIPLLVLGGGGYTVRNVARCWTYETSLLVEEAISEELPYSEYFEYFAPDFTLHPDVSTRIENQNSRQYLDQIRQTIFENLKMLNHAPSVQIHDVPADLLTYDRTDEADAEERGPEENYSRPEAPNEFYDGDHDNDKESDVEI
Chain of HDAC3 (Q9Y618 395-489 partner): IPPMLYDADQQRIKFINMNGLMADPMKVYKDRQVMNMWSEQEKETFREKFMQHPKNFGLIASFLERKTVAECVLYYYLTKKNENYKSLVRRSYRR
Chain of HDAC6 (Q9UBN7 whole entry): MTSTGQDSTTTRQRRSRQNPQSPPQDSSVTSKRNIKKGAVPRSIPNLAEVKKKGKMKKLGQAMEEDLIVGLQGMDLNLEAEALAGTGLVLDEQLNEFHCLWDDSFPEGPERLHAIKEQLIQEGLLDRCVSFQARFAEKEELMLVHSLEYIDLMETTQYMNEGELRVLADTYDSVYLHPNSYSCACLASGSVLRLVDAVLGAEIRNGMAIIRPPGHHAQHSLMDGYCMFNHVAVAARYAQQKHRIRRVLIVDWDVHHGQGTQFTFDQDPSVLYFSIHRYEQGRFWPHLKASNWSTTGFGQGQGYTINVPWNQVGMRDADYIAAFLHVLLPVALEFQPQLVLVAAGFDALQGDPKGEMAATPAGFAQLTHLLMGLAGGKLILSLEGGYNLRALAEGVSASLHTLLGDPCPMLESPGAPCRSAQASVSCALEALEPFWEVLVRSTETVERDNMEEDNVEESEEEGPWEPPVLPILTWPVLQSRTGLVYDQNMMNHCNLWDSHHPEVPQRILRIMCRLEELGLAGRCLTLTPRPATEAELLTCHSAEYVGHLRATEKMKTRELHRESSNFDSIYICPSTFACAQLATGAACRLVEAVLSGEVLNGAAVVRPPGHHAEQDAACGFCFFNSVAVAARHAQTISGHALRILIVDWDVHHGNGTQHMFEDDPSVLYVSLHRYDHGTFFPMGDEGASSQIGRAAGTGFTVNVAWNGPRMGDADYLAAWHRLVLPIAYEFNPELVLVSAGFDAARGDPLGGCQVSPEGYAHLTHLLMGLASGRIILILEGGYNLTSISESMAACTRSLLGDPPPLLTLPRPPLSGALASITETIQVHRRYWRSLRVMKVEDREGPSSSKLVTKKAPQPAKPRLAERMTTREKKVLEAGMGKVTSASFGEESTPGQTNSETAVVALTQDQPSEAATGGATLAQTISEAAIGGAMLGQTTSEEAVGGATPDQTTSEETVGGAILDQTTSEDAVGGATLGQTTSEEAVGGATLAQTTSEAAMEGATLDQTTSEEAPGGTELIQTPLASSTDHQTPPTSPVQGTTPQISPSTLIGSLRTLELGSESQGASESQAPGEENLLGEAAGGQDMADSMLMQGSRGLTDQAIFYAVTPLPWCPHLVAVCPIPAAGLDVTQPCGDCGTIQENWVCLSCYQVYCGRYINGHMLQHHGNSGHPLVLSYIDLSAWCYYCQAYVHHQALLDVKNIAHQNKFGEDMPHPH
Chain of HDAC10 (Q969S8 whole entry): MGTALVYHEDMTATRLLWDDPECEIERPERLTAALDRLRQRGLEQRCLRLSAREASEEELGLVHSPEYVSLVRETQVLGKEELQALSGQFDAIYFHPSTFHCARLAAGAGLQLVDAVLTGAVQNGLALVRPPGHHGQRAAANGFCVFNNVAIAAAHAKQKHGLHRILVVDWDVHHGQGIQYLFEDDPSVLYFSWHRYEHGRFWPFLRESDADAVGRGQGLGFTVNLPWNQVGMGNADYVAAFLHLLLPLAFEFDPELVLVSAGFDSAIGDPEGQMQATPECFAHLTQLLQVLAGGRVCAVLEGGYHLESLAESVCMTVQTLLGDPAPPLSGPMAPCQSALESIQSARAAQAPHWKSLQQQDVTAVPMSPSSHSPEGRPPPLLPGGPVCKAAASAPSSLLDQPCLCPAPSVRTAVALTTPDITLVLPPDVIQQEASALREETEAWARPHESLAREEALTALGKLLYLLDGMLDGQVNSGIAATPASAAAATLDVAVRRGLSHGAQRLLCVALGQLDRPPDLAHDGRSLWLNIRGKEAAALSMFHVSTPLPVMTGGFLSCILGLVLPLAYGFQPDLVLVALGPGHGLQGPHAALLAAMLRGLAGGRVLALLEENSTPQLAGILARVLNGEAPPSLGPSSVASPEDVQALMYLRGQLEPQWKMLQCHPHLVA

SMILES: O=C(NO)c1ccc(Nc2nc3ccccc3n2C2CCCCCC2)cc1 [ID #3, 4-((1-cycloheptyl-1H-benzo[d]imidazol-2-yl)amino)-N-hydroxybenzamide]
- IC50 (Toledo): 3210 nM
- IC50 (Raji): 4830 nM
- IC50 (MFE280): 9710 nM
- fraction unbound (% PPB, human): 0.0064
- IC50 (HDAC10): 3.12 µM
- IC50 (HDAC3): 0.079 µM
- IC50 (HDAC1): 0.445 µM
- IC50 (HDAC6): 0.0145 µM
- half-life (S9 in vitro half-life): 1.22 h
- IC50 (OCI-LY3): 2290 nM
- IC50 (ES2): 13200 nM
- fraction unbound (% PPB, mouse): 0.0052
- IC50 (KMS-34): 1360 nM
- IC50 (BC-1): 4930 nM
- IC50 (A549): 10000 nM
- IC50 (A2780): 5580 nM
- IC50 (SKUT-1B): 6920 nM
- IC50 (U266): 4100 nM
- Papp (Permeability (PAMPA)): 2.2 ×10⁻⁶ cm/s

SMILES: O=C(NO)c1ccc(Nc2nc3ccccc3n2CC2CCCCC2)cc1 [ID #1, 4-((1-(cyclohexylmethyl)-1H-benzo[d]imidazol-2-yl)amino)-N-hydroxybenzamide]
- IC50 (Toledo): 810 nM
- Improvement ID #1 over ID #3 Percent (Toledo): 74.77%
- Improvement ID #1 over ID #3 fold (Toledo): 3.96 fold
- IC50 (Raji): 1830 nM
- Improvement ID #1 over ID #3 Percent (Raji): 62.11%
- Improvement ID #1 over ID #3 fold (Raji): 2.64 fold
- IC50 (MFE280): 5010 nM
- Improvement ID #1 over ID #3 Percent (MFE280; MFE280): 48.40%
- Improvement ID #1 over ID #3 fold (MFE280; MFE280): 1.94 fold
- fraction unbound (% PPB, human): 0.0056
- IC50 (HDAC10): 0.137 µM
- IC50 (HDAC3): 0.019 µM
- IC50 (HDAC1): 0.13 µM
- IC50 (HDAC6): 0.0064 µM
- half-life (S9 in vitro half-life): 1.25 h
- IC50 (OCI-LY3): 1050 nM
- Improvement ID #1 over ID #3 Percent (OCI-LY3; OCI-LY3): 54.15%
- Improvement ID #1 over ID #3 fold (OCI-LY3; OCI-LY3): 2.18 fold
- IC50 (ES2): 3980 nM
- Improvement ID #1 over ID #3 Percent (ES2; ES2): 69.80%
- Improvement ID #1 over ID #3 fold (ES2; ES2): 3.31 fold
- fraction unbound (% PPB, mouse): 0.0045
- Improvement ID #1 over ID #3 Percent (KMS-34; KMS-34): 55.15%
- Improvement ID #1 over ID #3 fold (KMS-34; KMS-34): 2.23 fold
- IC50 (KMS-34): 610 nM
- IC50 (BC-1): 1790 nM
- Improvement ID #1 over ID #3 Percent (BC-1; BC-1): 63.69%
- Improvement ID #1 over ID #3 fold (BC-1; BC-1): 2.75 fold
- IC50 (A549): 2290 nM
- Improvement ID #1 over ID #3 Percent (A549; A549): 77.10%
- Improvement ID #1 over ID #3 fold (A549; A549): 4.37 fold
- IC50 (A2780): 2030 nM
- Improvement ID #1 over ID #3 Percent (A2780; A2780): 63.62%
- Improvement ID #1 over ID #3 fold (A2780; A2780): 2.75 fold
- IC50 (SKUT-1B): 2510 nM
- Improvement ID #1 over ID #3 Percent (SKUT-1B): 63.73%
- Improvement ID #1 over ID #3 fold (SKUT-1B): 2.76 fold
- IC50 (U266): 1170 nM
- Improvement ID #1 over ID #3 Percent (U266; U266): 71.46%
- Improvement ID #1 over ID #3 fold (U266; U266): 3.50 fold
- Papp (Permeability (PAMPA)): 1.68 ×10⁻⁶ cm/s
